Source: patent US9707233B2, “Heterocyclylamines as PI3K inhibitors” (Incyte Corporation, priority 2011, dated 2017)
Counter-ions that a name gives are not always drawn.

Each compound was assayed against PI3Kδ (Homo sapiens (Human), UniProt O00329) (assay: PI3K enzyme assay, [γ-33P]ATP filter plate (Example A2), isoform δ). Settings: as determined by Assay A2; 1000 μM ATP, 2.9 nM PI3Kδ.
Type: biochemical
Procedure: PI3K isoforms α, β, δ and γ are purchased from Millipore (Bedford, Mass.).
Inhibitors are first diluted serially in DMSO and added to the plate wells before the addition of other reaction components. The final concentration of DMSO in the assay is 0.5%. The PI3K assays are carried out at room temperature in 20 mM MOPS, pH 6.7, 10 mM MgCl2, 5 mM DTT and CHAPS 0.03%. The reaction mixture is prepared containing 50 μM PIP2, kinase and varying concentration of inhibitors. Reactions are initiated by the addition of ATP containing 2.2 μCi [γ-^33P]ATP to a final concentration of 1000 μM. […] Reactions are incubated for 180 minutes and terminated by the addition of 100 μL of 1 M potassium phosphate pH 8.0, 30 mM EDTA quench buffer. A 100 μL aliquot of the reaction solution are then transferred to 96-well Millipore MultiScreen IP 0.45 μm PVDF filter plate (The filter plate is prewetted with 200 μL 100% ethanol, distilled water, and 1 M potassium phosphate pH 8.0, respectively). […] After drying by aspiration and blotting, the plate is air dried in an incubator at 37° C. overnight. Packard TopCount adapter (Millipore) is then attached to the plate followed with addition of 120 μL Microscint 20 scintillation cocktail (Perkin Elmer) in each well. After the plate sealing, the radioactivity of the product is determined by scintillation counting on Topcount (Perkin-Elmer). […]

Chain of PI3Kδ (O00329 whole entry, canonical isoform): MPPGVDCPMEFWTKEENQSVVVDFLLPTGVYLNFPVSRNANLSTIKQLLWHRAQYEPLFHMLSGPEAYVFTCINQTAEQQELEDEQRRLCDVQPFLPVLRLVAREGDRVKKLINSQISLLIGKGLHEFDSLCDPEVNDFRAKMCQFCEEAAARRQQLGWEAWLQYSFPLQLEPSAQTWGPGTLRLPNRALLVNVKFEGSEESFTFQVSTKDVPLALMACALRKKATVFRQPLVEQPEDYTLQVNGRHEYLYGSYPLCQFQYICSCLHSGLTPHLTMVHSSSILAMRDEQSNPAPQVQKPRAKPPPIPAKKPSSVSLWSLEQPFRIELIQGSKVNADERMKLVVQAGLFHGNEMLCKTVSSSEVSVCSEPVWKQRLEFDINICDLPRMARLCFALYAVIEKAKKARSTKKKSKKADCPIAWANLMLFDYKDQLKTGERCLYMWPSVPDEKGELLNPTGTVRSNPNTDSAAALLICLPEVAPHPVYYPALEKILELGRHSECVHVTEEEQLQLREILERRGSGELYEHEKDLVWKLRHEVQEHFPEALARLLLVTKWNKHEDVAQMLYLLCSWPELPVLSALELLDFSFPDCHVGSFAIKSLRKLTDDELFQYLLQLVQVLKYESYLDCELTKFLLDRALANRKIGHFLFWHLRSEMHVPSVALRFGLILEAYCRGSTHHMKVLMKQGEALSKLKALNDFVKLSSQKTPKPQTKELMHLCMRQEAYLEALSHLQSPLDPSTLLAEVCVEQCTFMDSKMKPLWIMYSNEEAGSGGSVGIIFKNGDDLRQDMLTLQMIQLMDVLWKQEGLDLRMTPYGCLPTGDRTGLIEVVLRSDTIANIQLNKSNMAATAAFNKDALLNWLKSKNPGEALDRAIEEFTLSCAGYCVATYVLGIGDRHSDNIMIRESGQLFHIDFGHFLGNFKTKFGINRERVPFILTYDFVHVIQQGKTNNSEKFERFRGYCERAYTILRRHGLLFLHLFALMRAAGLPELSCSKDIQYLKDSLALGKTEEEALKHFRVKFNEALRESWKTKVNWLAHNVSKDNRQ
Chain of PI3Kδ (P27986 whole entry partner, canonical isoform): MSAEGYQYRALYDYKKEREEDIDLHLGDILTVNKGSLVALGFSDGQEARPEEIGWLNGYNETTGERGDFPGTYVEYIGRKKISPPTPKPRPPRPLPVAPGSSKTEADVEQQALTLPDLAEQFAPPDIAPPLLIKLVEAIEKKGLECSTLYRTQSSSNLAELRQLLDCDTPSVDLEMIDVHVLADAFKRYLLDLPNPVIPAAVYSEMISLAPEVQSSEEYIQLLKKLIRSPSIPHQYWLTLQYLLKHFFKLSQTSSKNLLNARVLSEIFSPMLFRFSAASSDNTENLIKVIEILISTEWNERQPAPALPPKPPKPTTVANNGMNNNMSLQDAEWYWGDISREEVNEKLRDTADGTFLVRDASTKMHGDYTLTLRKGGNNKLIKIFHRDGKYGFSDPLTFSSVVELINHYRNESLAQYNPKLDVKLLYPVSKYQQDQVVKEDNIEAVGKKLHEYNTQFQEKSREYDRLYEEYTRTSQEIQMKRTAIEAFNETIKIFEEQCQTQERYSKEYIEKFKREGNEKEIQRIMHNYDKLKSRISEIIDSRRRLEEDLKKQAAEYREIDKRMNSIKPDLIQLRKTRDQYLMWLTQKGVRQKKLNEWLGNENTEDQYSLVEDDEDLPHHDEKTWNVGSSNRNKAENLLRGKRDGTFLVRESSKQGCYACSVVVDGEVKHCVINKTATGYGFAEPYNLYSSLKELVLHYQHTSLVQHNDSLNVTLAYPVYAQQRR

Structure (SMILES) | IC50
COc1c([C@@H](C)n2nc(C)c3c(N)ncnc32)cc(Cl)c(C#N)c1C1CN(C[C@@H](C)O)C1 [Example 363, 4-((R)-1-(4-amino-3-methyl-1H-pyrazolo[3,4-d]pyrimidin-1-yl)ethyl)-6-chloro-2-(1-((R)-2-hydroxypropyl)azetidin-3-yl)-3-methoxybenzonitrile] | 50 to 200 nM

What follows are compounds tested against PI3Kδ (p110δ/p85α) (Homo sapiens (Human), UniProt O00329) (assay: PI3Kδ scintillation proximity assay (Example A3)). Settings: 20 μM ATP, 20 μM PIP2, 4 nM PI3Kδ; read-out: PI3Kδ SPA IC50.
Chain of PI3Kδ (p110δ/p85α) (O00329 whole entry): as the sequence (O00329 whole entry, canonical isoform) above
Chain of PI3Kδ (p110δ/p85α) (P27986 whole entry partner): as the sequence (P27986 whole entry partner, canonical isoform) above
Type: biochemical
Outline: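 Human PI3Kδ (p110δ/p85α, 4 nM) with 20 μM PIP2 and 20 μM ATP plus [γ-33P]ATP in 20 mM MOPS pH 6.7, 10 mM MgCl2, 5 mM DTT, 0.03% CHAPS, 0.5% DMSO, room temperature. Reaction stopped with EDTA/excess ATP; product captured on WGA SPA beads and counted. IC50 from percent control activity vs log inhibitor.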

Structure (SMILES) | IC50
CCOc1c(C(C)n2nc(-c3ccn(C)n3)c3c(N)ncnc32)cc(Cl)c(C)c1-c1ccc(C(=O)N(C)C)nc1 (stereo not drawn) [Example 50, 5-(3-{1-[4-amino-3-(1-methyl-1H-pyrazol-3-yl)-1H-pyrazolo[3,4-d]pyrimidin-1-yl]ethyl}-5-chloro-2-ethoxy-6-methylphenyl)-N,N-dimethylpyridine-2-carboxamide bis(trifluoroacetate)] | ≤ 10 nM
COc1c(C(C)n2nc(C(F)F)c3c(N)ncnc32)cc(Cl)c(F)c1C1CN(C)C1 (stereo not drawn) [Example 75, 1-{1-[5-Chloro-4-fluoro-2-methoxy-3-(1-methylazetidin-3-yl)phenyl]ethyl}-3-(difluoromethyl)-1H-pyrazolo[3,4-d]pyrimidin-4-amine] | ≤ 10 nM
COc1c(C(C)n2nc(C)c3c(N)ncnc32)cc(Cl)c(C)c1C1CN(CC(N)=O)C1 (stereo not drawn) [Example 111, 2-(3-{3-[1-(4-Amino-3-methyl-1H-pyrazolo[3,4-d]pyrimidin-1-yl)ethyl]-5-chloro-2-methoxy-6-methylphenyl}azetidin-1-yl)acetamide] | ≤ 10 nM
COc1c(C(C)n2nc(C)c3c(N)ncnc32)cc(Cl)c(C)c1C1CN(C(=O)[C@@H](C)O)C1 (stereo partly drawn) [Example 121, (2R)-1-(3-{3-[1-(4-Amino-3-methyl-1H-pyrazolo[3,4-d]pyrimidin-1-yl)ethyl]-5-chloro-2-methoxy-6-methylphenyl}azetidin-1-yl)-1-oxopropan-2-ol trifluoroacetate] | ≤ 10 nM
CCOc1c(C(C)n2nc(C)c3c(N)ncnc32)cc(Cl)c(F)c1C1CN(CCO)C1 (stereo not drawn) [Example 144, 2-(3-{3-[1-(4-Amino-3-methyl-1H-pyrazolo[3,4-d]pyrimidin-1-yl)ethyl]-5-chloro-2-ethoxy-6-fluorophenyl}azetidin-1-yl)ethanol] | ≤ 10 nM
CCOc1c(C(C)n2nc(C)c3c(N)ncnc32)cc(Cl)c(F)c1C1CN(CC(N)=O)C1 (stereo not drawn) [Example 148, 2-(3-{3-[1-(4-Amino-3-methyl-1H-pyrazolo[3,4-d]pyrimidin-1-yl)ethyl]-5-chloro-2-ethoxy-6-fluorophenyl}azetidin-1-yl)acetamide] | ≤ 10 nM
COc1c(C(C)n2nc(C)c3c(N)ncnc32)cc(Cl)c(C)c1-c1cncc(C(=O)N2CC(C#N)C2)c1 (stereo not drawn) [Example 177, 1-[(5-{3-[1-(4-amino-3-methyl-1H-pyrazolo[3,4-d]pyrimidin-1-yl)ethyl]-5-chloro-2-methoxy-6-methylphenyl}pyridin-3-yl)carbonyl]azetidine-3-carbonitrile] | ≤ 10 nM
CCOc1c(C(C)n2nc(C)c3c(N)ncnc32)cc(Cl)c(C)c1-c1cncc(C(=O)N(C)C)c1 (stereo not drawn) [Example 196, 5-(3-(1-(4-amino-3-methyl-1H-pyrazolo[3,4-d]pyrimidin-1-yl)ethyl)-5-chloro-2-ethoxy-6-methylphenyl)-N,N-dimethylnicotinamide] | ≤ 10 nM
CCOc1c(C(C)n2nc(C)c3c(N)ncnc32)cc(Cl)c(C)c1-c1cncc(S(C)(=O)=O)c1 (stereo not drawn) [Example 198, 1-(1-(5-chloro-2-ethoxy-4-methyl-3-(5-(methylsulfonyl)pyridin-3-yl)phenyl)ethyl)-3-methyl-1H-pyrazolo[3,4-d]pyrimidin-4-amine] | ≤ 10 nM
CCOc1c(C(C)n2nc(C)c3c(N)ncnc32)cc(Cl)c(C#N)c1C1CN(CC)C1 (stereo not drawn) [Example 214, 4-[1-(4-Amino-3-methyl-1H-pyrazolo[3,4-d]pyrimidin-1-yl)ethyl]-6-chloro-3-ethoxy-2-(1-ethylazetidin-3-yl)benzonitrile] | ≤ 10 nM
CCOc1c(C(C)n2nc(C)c3c(N)ncnc32)cc(Cl)c(C#N)c1C1CN(C(C)C)C1 (stereo not drawn) [Example 215, 4-[1-(4-Amino-3-methyl-1H-pyrazolo[3,4-d]pyrimidin-1-yl)ethyl]-6-chloro-3-ethoxy-2-(1-isopropylazetidin-3-yl)benzonitrile] | ≤ 10 nM
CCOc1c(C(C)n2nc(C)c3c(N)ncnc32)cc(Cl)c(C#N)c1C1CN(CC(C)(C)O)C1 (stereo not drawn) [Example 222, 4-[1-(4-Amino-3-methyl-1H-pyrazolo[3,4-d]pyrimidin-1-yl)ethyl]-6-chloro-3-ethoxy-2-[1-(2-hydroxy-2-methylpropyl)azetidin-3-yl]benzonitrile] | ≤ 10 nM
CCOc1c(C(C)n2nc(C)c3c(N)ncnc32)cc(Cl)c(C#N)c1C1CN(CCOC)C1 (stereo not drawn) [Example 225, 4-[1-(4-Amino-3-methyl-1H-pyrazolo[3,4-d]pyrimidin-1-yl)ethyl]-6-chloro-3-ethoxy-2-[1-(2-methoxyethyl)azetidin-3-yl]benzonitrile] | ≤ 10 nM
CCOc1c(C(C)n2nc(C)c3c(N)ncnc32)cc(Cl)c(C#N)c1C1CN(S(C)(=O)=O)C1 (stereo not drawn) [Example 248, 4-[1-(4-Amino-3-methyl-1H-pyrazolo[3,4-d]pyrimidin-1-yl)ethyl]-6-chloro-3-ethoxy-2-[1-(methylsulfonyl)azetidin-3-yl]benzonitrile] | ≤ 10 nM
CCOc1c(C(C)n2nc(C)c3c(N)ncnc32)cc(Cl)c(C#N)c1C1CN(C(=O)NC)C1 (stereo not drawn) [Example 257, 3-{3-[1-(4-Amino-3-methyl-1H-pyrazolo[3,4-d]pyrimidin-1-yl)ethyl]-5-chloro-6-cyano-2-ethoxyphenyl}-N-methylazetidine-1-carboxamide] | ≤ 10 nM
COc1c(C(C)n2nc(C)c3c(N)ncnc32)cc(Cl)c(C#N)c1C1CN(C(C)C)C1 (stereo not drawn) [Example 264, 4-[1-(4-Amino-3-methyl-1H-pyrazolo[3,4-d]pyrimidin-1-yl)ethyl]-6-chloro-2-(1-isopropylazetidin-3-yl)-3-methoxybenzonitrile] | ≤ 10 nM
COc1c(C(C)n2nc(C)c3c(N)ncnc32)cc(Cl)c(C#N)c1C1CN(CC(C)(C)O)C1 (stereo not drawn) [Example 271, 4-[1-(4-Amino-3-methyl-1H-pyrazolo[3,4-d]pyrimidin-1-yl)ethyl]-6-chloro-2-[1-(2-hydroxy-2-methylpropyl)azetidin-3-yl]-3-methoxybenzonitrile] | ≤ 10 nM
